Reference: patent US20190015416A1, “BTK INHIBITORS FOR TREATING NEUROBLASTOMA” (The Chinese University of Hong Kong, priority 2017, published 2019)

Key:
SH-SY5Y tumor xenograft = details: SH-SY5Y xenograft in nude mice
From the text: SH-SY 5Y cells were inoculated into flanks of nude mice. Animals were randomly divided into four groups when tumor xenograft reached 100 mm^3. […] (FIG. 7B) Quantifications of the tumor xenografts weight. The data are expressed as mean values±S.D. (n=4 in each group). **P<0.01. […] Mean±SD values are presented. **p<0.01; *p<0.05. […] (FIG. 7D) Cell proliferations in tumor xenografts were elucidated by immunohistochemical (IHC) analysis with Ki67 antibody. Scale bar represents 50 μm. (FIG. 7E) Quantification of Ki-67-positive cells within the xenografts. Ki-67-positive cells were quantitated from 5 random fields of each tumor xenograft under the microscope (400×) using Image-Pro PLUS V6.0.0.260 software. The values were normalized to those from vehicle treated mice. The data were presented as mean values±S.D. (n=4). **p<0.01; *p<0.05. Apoptosis markers such as cleaved PARP and cleaved Caspase 3 in xenograft tumors were examined by Western blot. […] The signals densities were analyzed by Image J. The relative signals of cleavage PARP to total PARP, cleaved Caspase 3 to tubulin were normalized to those from vehicle treated mice.
Neuroblastoma xenografts in nude mice were established by injection of SH-SY5Y cells.

SH-SY5Y cells [1] = assay: MTT proliferation assay; type: cell-based, human; details: 48 hr treatment or transfection, normalized to DMSO
Protocol: (§1) FIGS. 5A-5G: BTK signaling regulates cell proliferation. […] MTT were performed to measure the cell viability, the absorbance of treated cell groups was normalized to that of DMSO treated cells. (FIGS. 5C, 5D) MTT assay of NBL-S or SH-SY5Y cells transfected with BTK (FIG. 5C) or BTK siRNA (FIG. 5D) at 48 hr after transfection. […] (FIG. 5E) NBL-S cells and SH-SY5Y cells were treated with the inhibitors either separately or the combinations as indicated, and the treated cells were collected at different time points for MTT assay. The absorbance of treated cell groups was normalized to that of control cells treated with DMSO.
(§2) Neuroblastoma cells were seeded in 96-well plates at a concentration of 5×10^3 per well. After siRNA transfection or inhibitor treatment for 48 hours, 10 ul MTT ([…]) is added into every well followed by incubation for 4 hours. The absorbance was measured at A570 nm.

NBL-S cells = assay: MTT proliferation assay; type: cell-based, human; details: 48 hr treatment or transfection, normalized to DMSO
Protocol: as §1, §2

SH-SY5Y cells [2] = assay: Cell cycle distribution by flow cytometry; type: cell-based, human; details: 24 hr, Ibrutinib 2.5 μM, NVP-TAE684 100 nM, Crizotinib 250 nM, control 64.90%

SMILES: C[C@@H](Oc1cc(-c2cnn(C3CCNCC3)c2)cnc1N)c1c(Cl)ccc(F)c1Cl [Crizotinib]
- proliferation of neuroblastoma cells in vivo (Ki67 immunostaining) (SH-SY5Y tumor xenograft; 14 days treatment): inhibited proliferation
- cell apoptosis in tumor xenograft (cleaved caspase 3 and PARP) (SH-SY5Y tumor xenograft; Western blot): potentiated cell apoptosis
- growth of neuroblastoma xenograft (SH-SY5Y tumor xenograft; intraperitoneal injection, 14 days): only moderately inhibited
- cell proliferation (MTT) (SH-SY5Y cells [1]): insensitive
- cell proliferation (MTT) (NBL-S cells): can be inhibited

SMILES: COc1cc(N2CCC(N3CCN(C)CC3)CC2)ccc1Nc1ncc(Cl)c(Nc2ccccc2S(=O)(=O)C(C)C)n1 [NVP-TAE684]
- cell proliferation (MTT) (SH-SY5Y cells [1]): can be inhibited
- cell proliferation (MTT) (NBL-S cells): can be inhibited

SMILES: C=CC(=O)N1CCC[C@@H](n2nc(-c3ccc(Oc4ccccc4)cc3)c3c(N)ncnc32)C1 [Ibrutinib, 1-((R)-3-(4-amino-3-(4-phenoxyphenyl)-1H-pyrazolo[3,4-d]pyrimidin-1-yl)pi-peridin-1-yl)prop-2-en-1-one]
- cell portion at G0/G1 phase (SH-SY5Y cells [2]): 73.8%
